Values quoted from earlier work in patent US20140171436A1, “TREATMENT OF ANTIFOLATE NEUROTOXICITY” (Syntrix Biosystems, Inc., priority 2003, published 2014).
Where “and” joins values, the source holds several entries; their conditions need not be identical. Equal entries are not always repeated. Where two headings read alike, the source gives them in different places.

How the values were obtained:
[1] = molecular target: sigma-1 receptor (Homo sapiens, UniProt Q99720); conditions: cited from earlier work
Chain of sigma-1 receptor (Q99720 whole entry, species assumed): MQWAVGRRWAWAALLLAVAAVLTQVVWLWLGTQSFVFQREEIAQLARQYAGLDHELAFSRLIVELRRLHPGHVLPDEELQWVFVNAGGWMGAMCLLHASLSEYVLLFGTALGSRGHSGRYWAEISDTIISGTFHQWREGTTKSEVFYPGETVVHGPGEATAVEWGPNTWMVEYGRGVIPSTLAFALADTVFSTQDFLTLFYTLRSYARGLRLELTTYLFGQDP

[2] = in words; 'No' = none known; cited from earlier work
[3] = molecular target: sigma-2 (Homo sapiens, UniProt Q5BJF2); conditions: read-out: Ki sigma-2; cited from earlier work
Chain of sigma-2 (Q5BJF2 whole entry): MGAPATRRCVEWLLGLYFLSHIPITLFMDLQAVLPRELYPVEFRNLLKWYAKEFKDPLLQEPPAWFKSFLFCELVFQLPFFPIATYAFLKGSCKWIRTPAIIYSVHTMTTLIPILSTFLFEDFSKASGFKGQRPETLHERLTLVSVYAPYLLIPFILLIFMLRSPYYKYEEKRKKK

[4] = molecular target: NMDA receptor; conditions: read-out: Ki NMDAR; cited from earlier work
[5] = molecular target: sigma-1 (Cavia porcellus, UniProt Q60492); conditions: Table IV, reference 8; read-out: sigma-1 affinity IC50; cited from earlier work
Chain of sigma-1 (Q60492 whole entry): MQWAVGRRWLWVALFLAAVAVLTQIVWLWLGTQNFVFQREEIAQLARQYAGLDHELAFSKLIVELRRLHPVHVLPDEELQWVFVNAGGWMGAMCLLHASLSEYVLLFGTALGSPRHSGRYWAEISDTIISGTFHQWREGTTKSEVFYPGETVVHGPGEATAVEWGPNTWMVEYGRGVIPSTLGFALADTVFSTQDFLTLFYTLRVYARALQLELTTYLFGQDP

[6] = cited from earlier work
[7] = frequent and massive doses as large as 3300 mg/day; cited from earlier work
[8] = Table III, sigma-1 antagonists, read-out: sigma-1 affinity
[9] = Table IV, undefined agonist/antagonist activity, read-out: sigma-1 affinity
[10] = Table II, sigma-1 agonists, read-out: sigma-1 affinity
[11] = delayed syndrome, moderate dose

Q: With “1-(cyclopropylmethyl)-4-(2′-oxoethyl) piperidine HBr [Dup-734]” as the compound, how does the Ki [1, 8] read?
A: Its Ki is < 50 nM.

Q: And the Other known affinity [2]?
A: The Other known affinity was “No”.

Q: What does the source list for “2-[4-(4-methoxy-benzyl)piperazin-1-yl-methyl]4-oxo[4H]-benzo-thiazolin-2-one [S-21377]”?
A: Ki [1, 9]: < 50 nM; Other known affinity [2]: No

Q: With `C=CCN1CCC2(C)c3cc(O)ccc3CC1C2C` (single isomer, unassigned; (+)) [(+)-N-allyl-normetazocine] as the compound, how does the Ki [1, 10] read?
A: Its Ki is < 50 nM.

Q: And the Ki ([1]; read-out: sigma-1 affinity Ki)?
A: Its Ki is 58 nM.

Q: What about the Ki [3] of the same compound?
A: Its Ki is 14000 nM.

Q: What about the Ki [4] of the same compound?
A: The Ki was 600 nM.

Q: For `CC(C)=CCN1CCC2(C)c3cc(O)ccc3CC1C2C` (single isomer, unassigned; (+)) [(+)-pentazocine], which Other known affinity [2] is on record?
A: The Other known affinity was “No”.

Q: Which Ki [1, 10] does the source give for `CCC(C/C=C/c1ccccc1)(c1ccccc1)N(C)CC1CC1` (single isomer, unassigned; (+)) [Igmesine, (+) N-cyclopropylmethyl-N-methyl-1,4-diphenyl-1-ethyl-butyl-2-N] here?
A: Its Ki is < 50 nM.

Q: With `CCCN1CCC[C@H](c2cccc(O)c2)C1` [(+)-3-PPP, R(+)-3-(3-hydroxyphenyl)-N-propylpiperidine] as the compound, how does the Other known affinity [2] read?
A: The Other known affinity was “Dopamine receptor”.

Q: Which Other known affinity [2] does the source give for `C[C@H](Cc1ccccc1)NCCCc1ccccc1` [(−)-PPAP, R(−)-N-(3-phenyl-1-propyl)-1-phenyl-2-aminopropane] here?
A: The Other known affinity was “NMDAR”.

Q: With `CN(CCc1ccc(Cl)c(Cl)c1)CCN1CCCC1` [BD-1008, N-[2-(3,4-dicholophenyl)ethyl]-N-methyl-2-(1-pyrrolidinyl)ethylamine] as the compound, how does the Other known affinity [2] read?
A: The Other known affinity was “sigma-2”.

Q: For `C=CCOc1ccc2c(c1)[C@@]13CCCC[C@H]1[C@@H](C2)N(C)CC3` [CPK-5, 3-allyloxy-17-methylmorphinan], which Ki ([1]; read-out: sigma-1 affinity Ki) is on record?
A: The Ki was 156 nM.

Q: What about the Ki [3] of the same compound?
A: The Ki was 14000 nM.

Q: What about the Ki [4] of the same compound?
A: Its Ki is 18000 nM.

Q: With `CN1CC[C@]23CCCC[C@H]2[C@H]1Cc1ccc(OCC2CC2)cc13` [CPK-6, 3-cyclopropylmethoxy-17-methylmorphinan] as the compound, how does the Ki ([1]; read-out: sigma-1 affinity Ki) read?
A: Its Ki is 148 nM.

Q: What about the Ki [3] of the same compound?
A: Its Ki is 15000 nM.

Q: What about the Ki [4] of the same compound?
A: Its Ki is 18000 nM.

Q: Which IC50 [5] does the source give for `CCN(CC)CCOC(=O)C1(c2ccccc2)CCCC1` [Caramiphen] here?
A: The IC50 was 25 nM.

Q: Which Ki [1, 9] does the source give for `CCN(CC)CCOCCOC(=O)C1(c2ccccc2)CCCC1` [Carbetapentane] here?
A: Its Ki is < 50 nM.

Q: What about the IC50 [5] of the same compound?
A: Its IC50 is 9 nM.

Q: For `COC(=O)[C@H]1[C@@H](OC(=O)c2ccccc2)C[C@@H]2CC[C@H]1N2C` [Cocaine], which Ki [1, 10] is on record?
A: The Ki was 500 to 10000 nM.

Q: With `Cc1ccc2c(c1)[C@@]13CCCC[C@H]1[C@@H](C2)N(C)CC3` [Dimemorfan, (+)-3-methyl-N-methylmorphinan] as the compound, how does the Ki ([1]; read-out: sigma-1 affinity Ki) read?
A: Its Ki is 151 nM.

Q: And the Ki [3]?
A: The Ki was 4000 to 11000 nM.

Q: And the Ki [4]?
A: Its Ki is 17000 nM.

Q: What does the source list for `CN(C)CCOCCOC(=O)N1c2ccccc2Sc2ccccc21` [Dimethoxanate]?
A: Ki [1, 9]: < 50 nM; IC50 [5]: 41 nM

Q: Which results are given for `OC(CN1CCC(Cc2ccc(F)cc2)CC1)c1ccc(Cl)cc1` (centres unmarked) [Eliprodil]?
A: Ki [1, 9]: < 50 nM; Other known affinity [2]: NMDAR polyamine site

Q: Which Other known affinity [2] does the source give for `CNCCC(Oc1ccc(C(F)(F)F)cc1)c1ccccc1` (centres unmarked) [Fluoxetine] here?
A: Its Other known affinity is “SSRI”.

Q: Which Ki [1, 10] does the source give for `CN(C)CCCN1c2ccccc2CCc2ccccc21` [Imipramine] here?
A: Its Ki is 50 to 500 nM.

Q: What about the Other known affinity [2] of the same compound?
A: Its Other known affinity is “MAOI”.

Q: For `COCCN1CCN(C[C@H]2CCN(c3ccc(Cl)cc3)C2=O)CC1.O=C(O)C(O)C(O)C(=O)O` [MS-377, (R)-(+)-1-(4-chlorophenyl)-3-[4-(2-methoxyethyl)piperazin-1-yl] methyl-2-pyrrolidinone L-tartrate], which Ki [1, 8] is on record?
A: The Ki was < 50 nM.

Q: What about the Other known affinity [2] of the same compound?
A: The Other known affinity was “No”.

Q: Which Incidence ([6]; acute syndrome, >1 g/m^2, IT) does the source give for `CN(Cc1cnc2nc(N)nc(N)c2n1)c1ccc(C(=O)N[C@@H](CCC(=O)O)C(=O)O)cc1` [MTX, Methotrexate] here?
A: Its Incidence is 5-40%.

Q: What about the Incidence ([6]; delayed (chronic) syndrome, low dose <10 mg/m^2 oral) of the same compound?
A: Its Incidence is “Low - 56%”.

Q: What about the Incidence ([6]; delayed syndrome, high dose 7-20 g/m^2 every 1-2 weeks) of the same compound?
A: Its Incidence is “High - 2.3%”.

Q: What about the “Typical duration of symptoms, insidiously progressive” value ([6]; delayed syndrome, high dose) of the same compound?
A: Its value is “High - Insidiously progressive over 3-6 months”.

Q: And the Incidence ([6]; delayed syndrome, moderate dose 10-1000 mg/m^2, depending on net dose)?
A: The Incidence was “Moderate - 1.9-19.5% depending on net dose”.

Q: What about the “Radiographic findings: leukoencephalopathy” value ([6]; delayed syndrome, moderate dose, depending on dose) of the same compound?
A: The value was “Moderate - Leukoencephalopathy in 15-75%,”.

Q: What about the “Permanent sequelae: asymptomatic” value [6, 11] of the same compound?
A: The value was “asymptomatic in 63-74%”.

Q: What about the “Permanent sequelae: neuropsychologic impairment” value [6, 11] of the same compound?
A: Its value is “neuropsychologic impairment 15%,”.

Q: What about the “Permanent sequelae: recurrent seizures” value [6, 11] of the same compound?
A: Its value is “Moderate - Recurrent seizures 7-26%,”.

Q: And the “Typical duration of symptoms, mean” value ([6]; subacute syndrome)?
A: Its value is “Mean 38 hours”.

Q: And the “mean duration of symptoms” value ([6]; subacute syndrome)?
A: The value was “approximately 40 hours”.

Q: For `Cc1c(-c2ccccc2)oc2ccc(OCCCCCCN3CCC(O)CC3)cc2c1=O` [NPC 16377, 6-[6-(4-hydroxypiperidinyl)hexyloxy]-3-methylflavone], which Other known affinity [2] is on record?
A: The Other known affinity was “No”.

Q: With `COc1cccc2c1CCC(=O)N2CCCN1CCN(c2cccc(Cl)c2)CC1` [OPC-14523] as the compound, how does the Ki [1, 10] read?
A: Its Ki is < 50 nM.

Q: What about the Other known affinity [2] of the same compound?
A: Its Other known affinity is “Sigma-2, 5HT1AR”.

Q: For `C[C@]12CC[C@H](OS(=O)(=O)O)CC1=CC[C@@H]1[C@@H]2CC[C@]2(C)C(=O)CC[C@@H]12` [PB-008, dihydroepiandrosterone sulphate], which Ki [1, 10] is on record?
A: The Ki was 500 to 10000 nM.

Q: With `COc1ccc(N2C[C@H](CN3CCC(O)(c4ccc5c(c4)OCO5)CC3)OC2=O)cc1` [Panamesin] as the compound, how does the Ki [1, 8] read?
A: Its Ki is < 50 nM.

Q: With `O=C(OCCOCCN1CCCCC1)N1c2ccccc2Sc2cccnc21` [Pipazethate] as the compound, how does the Ki [1, 9] read?
A: Its Ki is < 50 nM.

Q: What about the IC50 [5] of the same compound?
A: The IC50 was 190 nM.

Q: For `CC(=O)C1CCC2C3CC=C4CC(OS(=O)(=O)O)CCC4(C)C3CCC12C` (centres unmarked) [Pregnenolone sulphate], which Ki [1, 10] is on record?
A: Its Ki is 500 to 10000 nM.

Q: What does the source list for `c1ccc(CN2CCN(Cc3ccc4ccccc4c3)CC2)cc1` [S-21378, 2[(4-benzylpiperazin-1-yl)mothyl] naphthalene, dichiorydrate]?
A: Ki [1, 9]: < 50 nM; Other known affinity [2]: No

Q: Which Other known affinity [2] does the source give for `COc1ccc(CCN2CCN(CCCc3ccccc3)CC2)cc1OC.Cl` [SA4503, 1-(3,4-dimethoxyphenethyl)-4-(3-phenylpropyl) piperazine HCl] here?
A: The Other known affinity was “No”.

Q: For `CCN(C/C=C\c1ccc(C2CCCCC2)c(Cl)c1)C1CCCCC1.Cl` [SR-31747A], which Ki [1, 9] is on record?
A: Its Ki is < 50 nM.

Q: And the Other known affinity [2]?
A: Its Other known affinity is “C8-C7 sterol isomerase”.

Q: What does the source list for `CN1CC[C@@]23CCCC[C@@H]2[C@@H]1Cc1ccc(O)cc13` [dextrorphan]?
A: Ki ([1]; read-out: sigma-1 affinity Ki): 144 nM and 140 nM; Ki [3]: 4000 to 11000 nM; side-effects [7]: unacceptable PCP-like side-effects
